Assay results published in patent US20110070190A1 (Roche Palo Alto LLC, priority 2009, published 2011).
pIC50: −log10 of the molar value.

Key:
[1] = test system: HCV replicon cells (2209-23), genotype 1b replicon in human hepatoma Huh7 cells; assay: HCV replicon assay (Renilla luciferase reporter); type: cell-based, HCV genotype 1b; settings: Hepatitis C virus, Huh-7, 72 h; 2209-23 cells, three days incubation
[2] = target: T1, HCV polymerase (NS5B570n-Con1) (Hepatitis C virus genotype 1b, UniProt Q9WMX2); assay: HCV NS5B RNA polymerase activity (incorporation of radiolabeled nucleotide into acid insoluble RNA); type: biochemical, HCV Con1 strain
T1 construct: a 21 amino acid C-terminal deletion of full-length HCV polymerase; made in house; host or cells: E. coli BL21(DE3) pLysS, plasmid pET17b
Method: The enzymatic activity of HCV polymerase (NS5B570n-Con1) was measured as the incorporation of radiolabeled nucleotide monophosphates into acid insoluble RNA products. Unincorporated radiolabeled substrate was removed by filtration and scintillant was added to the washed and dried filter plate containing radiolabeled RNA product. The amount of RNA product generated by NS5B570n-Con1 at the end of the reaction was directly proportional to the amount of light emitted by the scintillant.
The HCV polymerase used in the enzymatic activity assay is a 21 amino acid C-terminal deletion of full-length HCV polymerase derived from HCV Con1 strain, genotype 1b (GenBank accession number AJ242654) (NS5B570n-Con1). The NS5B570n-Con1 was sub-cloned downstream to the T7 promoter of the plasmid expression construct pET17b and transformed into E. coli strain BL21(DE3) pLysS for protein expression. A single colony was used to start an innoculum for a 10 L culture in LB media supplemented with 100 μg/mL ampicillin at 37° C. Protein expression was induced by the addition of 0.25 mM isopropyl-β-D-thiogalactopyranoside (IPTG) when the optical density of the culture at […] was 0.8. Induction of protein expression was carried out at 30° C. for 16 h after which the cells were harvested by centrifugation. NS5B570n-Con1 was purified to homogeneity using a three-column purification protocol including subsequent column chromatography on Ni-NTA, SP-Sepharose HP and Superdex 75 resins.
Enzymatic reactions in the presence of cIRES RNA template (see paragraph [00213]) contained 20 nM cIRES RNA, 20 nM NS5B570n-Con1 enzyme, 0.5 μCi of tritiated UTP (Perkin Elmer catalog no. TRK-412; specific activity: 30 to 60 Ci/mmol;), 1 μM each ATP, CTP, and GTP, 40 mM Tris-HCl pH 8.0, 40 mM NaCl, 4 mM DTT (dithiothreitol), 4 mM MgCl2, 5 μl of compound serial diluted in DMSO, and nuclease-free water to a final reaction volume of 50 μl. Enzymatic reactions in the presence of poly A RNA template (see paragraph [00213]) contained 20 nM Poly A:oligo(rU)16 premixed (see section 0004), 20 nM NS5B570n-Con1 enzyme, 1 μCi of tritiated UTP (Perkin Elmer catalog no. TRK-412; specific activity: 30 to 60 Ci/mmol), 40 mM Tris-HCl pH 8.0, 40 mM NaCl, 4 mM DTT (dithiothreitol), 4 mM MgCl2, 5 μl of compound serial diluted in DMSO, and nuclease-free water to a final reaction volume of 50 μl. Reaction mixtures were assembled in 96-well filter plates (cat #MADVN0B, Millipore Co.) and incubated for 2 h at 30° C. Reactions were stopped by addition of 10% final (v/v) trichloroacetic acid and incubated for 40 min at 4° C. Reactions were filtered, washed with 8 reaction volumes of 10% (v/v) trichloroacetic acetic acid, 4 reaction volumes of 70% (v/v) ethanol, air dried, and 25 μl of scintillant (Microscint 20, Perkin-Elmer) was added to each reaction well.
Two RNA templates were used to assay compounds described herein. The cIRES RNA template was 377 nucleotide long and consisted of a partial complementary sequence (36 nucleotides) of the core protein, followed by 341 nucleotide of the complementary sequence of the internal ribosome entry site. The poly A RNA template (GE Amersham catalog number 27-4110) was a homopolymeric RNA pre-annealed to a oligo(rU)16 primer at a molar ratio of 3-to-1 (primer-template).
The amount of light emitted from the scintillant was converted to counts per minute (CPM) on a Topcount® plate reader (Perkin-Elmer, Energy Range: Low, Efficiency Mode: Normal, Count Time: 1 min, Background Subtract: none, Cross talk reduction: Off).
Data was analyzed in Excel® (Microsoft®) and ActivityBase® (Idbs®). The reaction in the absence of enzyme was used to determine the background signal, which was subtracted from the enzymatic reactions. Positive control reactions were performed in the absence of compound, from which the background corrected activity was set as 100% polymerase activity. All data was expressed as a percentage of the positive control. […]

SMILES	pIC50 [1]	pIC50 [2]
Cc1cc(N)n2nc(-c3ccc(-c4cc5c(s4)c(=O)ncn5Cc4ccc(Cl)cc4)cc3Cl)cc2n1 [Compound I-2, 6-[4-(7-Amino-5-methyl-pyrazolo[1,5-a]pyrimidin-2-yl)-3-chloro-phenyl]-1-(4-chloro-benzyl)-1H-thieno[3,2-d]pyrimidin-4-one]	8.39	8.40
Cc1ccc(Cn2cnc(=O)c3sc(-c4ccc(-c5cc6nc(C)cc(N)n6n5)cc4)cc32)cc1 [Compound I-38, 6-[4-(7-Amino-5-methyl-pyrazolo[1,5-a]pyrimidin-2-yl)-phenyl]-1-(4-methyl-benzyl)-1H-thieno[3,2-d]pyrimidin-4-one]	7.33	6.68
